Assays:
[1] = target: human RORγt ligand binding domain (RORγt LBD) (Homo sapiens (Human), UniProt P51449); assay: RORγt ThermoFluor assay
Description: ThermoFluor® is a fluorescence based assay that estimates ligand binding affinities by measuring the effect of a ligand on protein thermal stability (Pantoliano, M. W., Petrella, E. C., Kwasnoski, J. D., Lobanov, V. S., Myslik, J., Graf, E., Carver, T., Asel, E., Springer, B. A., Lane, P., and Salemme, F. R. (2001) High-density miniaturized thermal shift assays as a general strategy for drug discovery. J Biomol Screen 6, 429-40, and Matulis, D., Kranz, J. K., Salemme, F. R., and Todd, M. J. (2005) Thermodynamic stability of carbonic anhydrase: measurements of binding affinity and stoichiometry using ThermoFluor. Biochemistry 44, 5258-66). This approach is applicable to a wide variety of systems, and rigorous in theoretical interpretation through quantitation of equilibrium binding constants (KD).
The shift in the melting point described as a ΔTm is proportional to the concentration and affinity of the ligand. The compound potency may be compared as a rank order of either values at a single compound concentration or in terms of KD values, estimated from concentration response curves.
RORγt ThermoFluor® Assay Construct
For the RORγt construct used in the ThermoFluor® assay, numbering for the nucleotide sequences was based on the reference sequence for human RORγt, transcript variant 2, NCBI Accession: NM 001001523.1 (SEQ ID NO:1). Nucleotides 850-1635 (SEQ ID NO:2) coding for the wild type human RORγt ligand binding domain (RORγt LBD) were cloned into the pHIS1 vector, a modified pET E. coli expression vector (Accelagen, San Diego), containing an in-frame N-terminal His-tag and a TurboTEV protease cleavage site (ENLYFQG, SEQ ID NO:3) upstream of the cloned insert sequence. The amino acid sequence for the RORγt construct used in the Thermofluor® assay is shown as SEQ ID NO:4.
ThermoFluor® experiments were carried out using instruments owned by Janssen Research and Development, L.L.C. through its acquisition of 3-Dimensional Pharmaceuticals, Inc. 1,8-ANS (Invitrogen) was used as a fluorescent dye. Protein and compound solutions are dispensed into black 384-well polypropylene PCR microplates (Abgene) and overlayed with silicone oil (1 μL, Fluka, type DC 200) to prevent evaporation.
Bar-coded assay plates are robotically loaded onto a thermostatically controlled PCR-type thermal block and then heated at a typical ramp-rate of 1° C./min for all experiments. Fluorescence was measured by continuous illumination with UV light (Hamamatsu LC6) supplied via fiber optic and filtered through a band-pass filter (380-400 nm; >6 OD cutoff). Fluorescence emission of the entire 384-well plate was detected by measuring light intensity using a CCD camera (Sensys, Roper Scientific) filtered to detect 500±25 nm, resulting in simultaneous and independent readings of all 384 wells. Images were collected at each temperature, and the sum of the pixel intensity in a given area of the assay plate was recorded versus temperature. Reference wells contained RORγt without compounds, and the assay conditions were as follows:
Project compounds were arranged in a pre-dosed mother plate (Greiner Bio-one) wherein compounds are serially diluted in 100% DMSO by 1:2 from a high concentration of 10 mM over 12 columns within a series (column 12 is a reference well containing DMSO, no compound). The compounds were robotically dispensed directly into assay plates (1×=46 nL) using a Hummingbird capillary liquid handling instrument (Digilab). Following compound dispense, protein and dye in buffer was added to achieve the final assay volume of 3 μL, followed by 1 μL of silicone oil.
The binding affinity was estimated as described previously (Matulis, D., Kranz, J. K., Salemme, F. R., and Todd, M. J. (2005) Thermodynamic stability of carbonic anhydrase: measurements of binding affinity and stoichiometry using ThermoFluor®. Biochemistry 44, 5258-66) using the following thermodynamic parameters of protein unfolding:
Reference RORγt Tm: 47.8° C.

[2] = target: full-length human RORγt (GAL4-DBD-RORγt fusion) in HEK293T cells (Homo sapiens (Human), UniProt P51449); assay: RORγt (full-length human) reporter assay, conditions A or B; type: cell-based; conditions: for IC50: HEK293T cells, read-out: RORγt (FL) Reporter Assay A or B, IC50; for inhibition at 3 µM / inhibition at 1 µM: HEK-293T, read-out: RORγt (FL) Reporter Assay A or B, % inhibition; for inhibition at 3 µM: 3 μM compound concentration (footnote *); for inhibition at 1 µM: 1 μM compound concentration (footnote ***)
Experimental: RORγt (Full-Length Human) Reporter Assay:
(§1) HEK293T cells were plated at 35,000 per well in 96-well plate in medium of DMEM with 10% FBS. […] After overnight (16 to 20 hours) incubation, media were removed and cells were lysed with 50 μL Glo Lysis Buffer (Promega) for 10-15 minutes followed by 10 minute incubation with 50 μL Dual Glo reagent (Promega) at room temperature. Firefly luciferase luminescence was measured using a BMG Pherastar plate reader. To each well, 50 μL Stop and Glo reagent was added and incubated for 10 minutes at room temperature. Renilla luminescence was measured using a BMG Pherastar plate reader. To calculate the effect of compounds on RORγt activity, firefly values were normalized against values of DMSO only and values of reference compound at saturating concentration, then further normalized against Renilla signals. IC50s were generated by plotting final Renilla normalized data against compound concentration and percent inhibition was calculated against DMSO control.
as §1, with “at 8750 cells” for “at 35,000”, “in 384-well” for “in 96-well”, “with 20” for “with 50”, “well, 20” for “well, 50”

Sequence of full-length human RORγt (GAL4-DBD-RORγt fusion) in HEK293T cells (P51449 other isoform, or with tags, fused parts or gaps): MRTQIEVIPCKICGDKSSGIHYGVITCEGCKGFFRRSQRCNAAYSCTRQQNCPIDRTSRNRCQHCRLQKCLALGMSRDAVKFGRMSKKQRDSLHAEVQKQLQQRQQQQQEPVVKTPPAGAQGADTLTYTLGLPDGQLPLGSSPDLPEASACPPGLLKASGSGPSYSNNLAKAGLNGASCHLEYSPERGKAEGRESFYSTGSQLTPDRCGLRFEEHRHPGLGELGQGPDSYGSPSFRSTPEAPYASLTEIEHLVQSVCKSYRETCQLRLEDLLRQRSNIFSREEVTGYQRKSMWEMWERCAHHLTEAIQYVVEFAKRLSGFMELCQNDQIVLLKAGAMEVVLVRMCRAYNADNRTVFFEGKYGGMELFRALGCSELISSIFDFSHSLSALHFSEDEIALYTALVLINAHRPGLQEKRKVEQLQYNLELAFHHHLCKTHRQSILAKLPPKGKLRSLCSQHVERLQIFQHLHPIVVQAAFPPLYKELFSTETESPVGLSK
Sequence of human RORγt ligand binding domain (RORγt LBD) (P51449 other isoform, or with tags, fused parts or gaps): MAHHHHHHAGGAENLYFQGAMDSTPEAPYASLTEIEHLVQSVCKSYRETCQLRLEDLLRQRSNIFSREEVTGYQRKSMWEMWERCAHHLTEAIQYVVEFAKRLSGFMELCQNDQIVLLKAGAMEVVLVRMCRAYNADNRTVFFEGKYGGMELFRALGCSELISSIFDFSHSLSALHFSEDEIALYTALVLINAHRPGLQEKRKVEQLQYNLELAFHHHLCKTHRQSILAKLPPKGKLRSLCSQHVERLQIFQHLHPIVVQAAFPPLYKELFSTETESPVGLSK

| Kd [1] [nM] | IC50 [2] [nM] | inhibition at 3 µM [2] [%] | inhibition at 1 µM [2] [%] | Structure (SMILES) |
| --- | --- | --- | --- | --- |
| 1.4 | 23 | 108 |  | CCn1nc(C(=O)NC[C@H]2CC[C@H](S(N)(=O)=O)CC2)c(Cl)c1-c1cnc(CC(C)(C)C(F)(F)F)cc1OC(F)F [Example 11, 4-chloro-5-(4-(difluoromethoxy)-6-(3,3,3-trifluoro-2,2-dimethylpropyl)pyridin-3-yl)-1-ethyl-N-(((1r,4r)-4-sulfamoylcyclohexyl)methyl)-1H-pyrazole-3-carboxamide] |
| 4.3 | 29 | 110 |  | CCn1nc(C(=O)NC[C@H]2CC[C@H](S(N)(=O)=O)CC2)c(C)c1-c1cnc(CC(C)(C)C(F)(F)F)cc1OC(F)F [Example 12, 5-(4-(Difluoromethoxy)-6-(3,3,3-trifluoro-2,2-dimethylpropyl)pyridin-3-yl)-1-ethyl-4-methyl-N-(((1r,4r)-4-sulfamoylcyclohexyl)methyl)-1H-pyrazole-3-carboxamide] |
| 1.2 | 20 |  | 120 | CCn1nc(C(=O)NC[C@H]2CC[C@H](S(C)(=O)=O)CC2)c(Cl)c1-c1cnc(CC(C(F)(F)F)C(F)(F)F)cc1OC(F)F [Example 21, 4-Chloro-5-(4-(difluoromethoxy)-6-(3,3,3-trifluoro-2-(trifluoromethyl)propyl)pyridin-3-yl)-1-ethyl-N-(((1r,4r)-4-(methylsulfonyl)cyclohexyl)methyl)-1H-pyrazole-3-carboxamide] |
| 6.4 | 46 |  | 115 | CCn1nc(C(=O)NC[C@]2(O)CC[C@@H](S(C)(=O)=O)CC2)c(Cl)c1-c1cnc(CC(C(F)(F)F)C(F)(F)F)cc1OC(F)F [Example 22, 4-Chloro-5-(4-(difluoromethoxy)-6-(3,3,3-trifluoro-2-(trifluoromethyl)propyl)pyridin-3-yl)-1-ethyl-N-(((1s,4s)-1-hydroxy-4-(methylsulfonyl)cyclohexyl)methyl)-1H-pyrazole-3-carboxamide] |
| 2.5 | 15 | 100 |  | CCn1nc(C(=O)NC[C@H]2CC[C@H](S(C)(=O)=O)CC2)c(C)c1-c1cnc(CC(C(F)(F)F)C(F)(F)F)cc1OC(F)F [Example 23, 5-(4-(Difluoromethoxy)-6-(3,3,3-trifluoro-2-(trifluoromethyl)propyl)pyridin-3-yl)-1-ethyl-4-methyl-N-(((1r,4r)-4-(methylsulfonyl)cyclohexyl)methyl)-1H-pyrazole-3-carboxamide] |
| 8.9 | 63 | 113 |  | CCn1nc(C(=O)NC[C@]2(O)CC[C@@H](S(C)(=O)=O)CC2)c(C)c1-c1cnc(CC(C(F)(F)F)C(F)(F)F)cc1OC(F)F [Example 24, 5-(4-(Difluoromethoxy)-6-(3,3,3-trifluoro-2-(trifluoromethyl)propyl)pyridin-3-yl)-1-ethyl-N-(((1s,4s)-1-hydroxy-4-(methylsulfonyl)cyclohexyl)methyl)-4-methyl-1H-pyrazole-3-carboxamide] |
| 15 | 340 | 94 |  | CCn1nc(C(=O)NC[C@H]2CC[C@H](S(C)(=O)=O)CC2)c(Cl)c1-c1cnc(CC(C)(C)C(F)(F)F)cc1C(C)C [Example 25] |
| 17 | 14 | 88 |  | CCn1nc(C(=O)NC[C@H]2CC[C@H](S(C)(=O)=O)CC2)c(Cl)c1-c1cnc(CC(C)(C)C(F)(F)F)cc1C(F)F [Example 26, 4-Chloro-5-(4-(difluoromethyl)-6-(3,3,3-trifluoro-2,2-dimethylpropyl)pyridin-3-yl)-1-ethyl-N-(((1r,4r)-4-(methylsulfonyl)cyclohexyl)methyl)-1H-pyrazole-3-carboxamide] |
